For assay [1], the system named is C57B6J mice. Nature of the assay: Female urine sniffing test after chronic mild unpredictable stress. It is filed as in vivo. The settings on record: 60 minutes pre-test; for time sniffing female estrous urine: relative to vehicle. How it is done: FIG. 2. Effect of mesembrenol (0.3, 1 and 3 mg/kg, i.p.) administered 60 minutes pre-test on preference to examine the female estrous urine treat following chronic mild unpredictable stress. Data represents total time (sec) engaged in sniffing and investigating the urine soaked cotton tip during a 3 minute trial period. Analysis by one-way ANOVA followed by multiple comparisons with Sidak's correction; **-****P<0.01-0.0001 vs stress vehicle (n=8).
FIG. 3. Effect of mesembranol (0.3, 1 and 3 mg/kg, i.p.) administered 60 minutes pre-test on preference to examine the female estrous urine treat following chronic mild unpredictable stress. Data represents total time (sec) engaged in sniffing and investigating the urine soaked cotton tip during a 3 minute trial period. Analysis by one-way ANOVA followed by multiple comparisons with Sidak's correction; **-****P<0.01-0.0001 vs stress vehicle (n=8).
(§1) C57BI6J mice, will be housed in groups of 4, will be exposed to a variety of mild stressors for a period of four weeks.
(§2) The stressors will include wet bedding, 40° cage tilt, introduction of intruder mouse from different experimental cohort, food deprivation, water deprivation, overnight illumination, and presence of soiled rat bedding as an aversive odour. These stressors are randomly scheduled over each weekly period and repeated for the duration of the experiment. Each stressor is applied for a period of 8-16 hours.
(§3) A cohort of depression-like phenotype in adult male C57B6J mice is produced by employing a four-week mild unpredictable stress protocol.
Following two weeks treatment with imipramine, or acute treatment with vehicle or the test compounds (mesembrenol and mesembranol), the reversal of stress induced depression-like behaviour was determined using a measure of anhedonia, female urine sniffing preference.
The test compounds were evaluated at three doses with comparison made to vehicle control, no stress control and the reference control imipramine (n=8). […]
Animals are subsequently transferred to individual cages and exposed for a 3 minute period to a cotton tipped applicator which is dipped in water and attached to the side of the cage. The time each animal spends sniffing the water-impregnated cotton tipped applicator is scored manually by the observer who is blinded to group treatments.
Following a 45 minute interval in the absence of a cotton tipped applicator, an applicator dipped in the urine of a female mice in oestrus is presented and the time spent sniffing the urine-impregnated cotton bud is recorded over a 3 minute period. […]
Testing is conducted under low level red light and behaviour is scored remotely via a video camera placed above the cage.

The test system of assay [2] is C57B6J mice. Nature of the assay: Elevated plus maze after chronic mild unpredictable stress. It is filed as in vivo. The protocol:
FIG. 8. Effect of mesembrenol (0.3, 1 and 3 mg/kg, i.p.) administered 30 minutes pre-test on chronic mild unpredictable stress induced anxiety phenotype in the elevated plus maze. Data represents (A) latency to open arm entry (sec), (B) number of open arm entries (a.u.) and (C) total time in open arms of the apparatus during the ten minute procedure. Analysis by one-way ANOVA followed by multiple comparisons with Dunn's and Sidak's correction; *-**** P<0.05-0.0001 vs stress vehicle (n=8).
FIG. 9. Effect of mesembranol (0.3, 1 and 3 mg/kg, i.p.) administered 30 minutes pre-test on chronic mild unpredictable stress induced anxiety phenotype in the elevated plus maze. Data represents (A) latency to open arm entry (sec), (B) number of open arm entries (a.u.) and (C) total time in open arms of the apparatus during the ten minute procedure. Analysis by one-way ANOVA followed by multiple comparisons with Dunn's and Sidak's correction; *-**** P<0.05-0.0001 vs stress vehicle (n=8).
as §1, §2, §3
Finally, the effect of the test compounds on chronic unpredictable mild stress anxiogenic phenotype in the elevated plus-maze to determine anxiolytic-like activity.
The apparatus consists of 4 raised flat runways extending from a central platform raised 1 m above the floor of a 2 m wide water maze (prevents escape in the rare event of an animal falling from the apparatus). Two arms have enclosed sides while the others are open.
The mouse version of the apparatus employs maze arms of 30 cm length and 6 cm width, where the enclosed arms have walls 30 cm high. The room is lit with low level indirect lighting.
Animals are allowed to freely explore the apparatus over a 10 minute trial with remote video analysis capturing the pattern of animal movement. The time animals spend exploring the open arms of the maze during the trial is inversely related to the level of stress/anxiety felt by the animal.
Endpoints recorded are the latency (sec) to enter open arms of the maze, total number of open arm entries (a.u.) and total time (sec) spent in the open arms of the plus-maze.

Assay [3] addresses T1, human serotonin transporter (Homo sapiens, UniProt P31645).
T1 construct: expressed in transfected cells; host or cells: CHO cells
Nature of the assay: SERT assay, [3H] serotonin uptake in transfected CHO cells. In kind it is cell-based. The settings on record: CHO cells with human serotonin transporter, 180 min. How it is done: Test compounds (conc range), reference compound or vehicle control were incubated for 180 min at room temperature with CHO cells stably transfected with the human serotonin transporter (5×10^3 cells/well) with 0.15 μM [3H] serotonin in the presence or absence of the test or reference compound in buffer containing (in mM); Tris/HCl (pH 7.4) (5), HEPES/Tris (7.5), NaCl (120), KCl (5.4), CaCl2) (1.2), MgSO4 (1.2), Glucose (5) and ascorbic acid (1). Following incubation, [3H] serotonin uptake was quantified by a standard scintillation counting method.
(§4) Data were expressed as the mean of two technical replicates for each data point, and percent inhibition calculated relative to maximum inhibition observed in the presence of the reference comparator rolipram for PDE-4 assays, and imipramine for serotonin assays.

Assay [4] addresses human recombinant PDE-4B1 (Homo sapiens, UniProt Q07343). Nature of the assay: PDE4-B1 assay (SPA). The settings on record: human recombinant enzyme, 450 nM cAMP. It is filed as biochemical. The protocol: (§5) Test compounds (conc range), reference compound or vehicle control were added to assay buffer containing (in mM); Tris/HCl, pH 7.4 (40), MgCl2 (8) and EGTA/NaOH (1.7), containing 450 nM cAMP (450 nM) and 0.25 μCi (PDE-4B1) or 0.0125 μCi (PDE-4D2) [^3H] CAMP. 20 mins after addition of human recombinant PDE-4B1 (1.2 IEU) or PDE-4D2 (1.5 IEU), SPA beads were added and incubated at 22° C. for a further 30 mins. [^3H]5′AMP was quantified by a standard scintillation counting method.
as §4

Assay [5] deals with human recombinant PDE-4D2 (Homo sapiens, UniProt Q08499). Nature of the assay: PDE4-D2 assay (SPA). In kind it is biochemical. The protocol:
as §5, §4

For assay [6], the system named is zebrafish. The settings on record: isolated alkaloids, Maphanga et al., 2022; cited from earlier work.
The mark [7] stands for this setting: 3 mg/kg i.p., mesembrenol p<0.001, mesembranol p<0.01.
[8] abbreviates: 3 mg/kg i.p., 30 minutes pre-test, relative to vehicle.

Chain of human recombinant PDE-4D2 (Q08499 303-809 limits assumed): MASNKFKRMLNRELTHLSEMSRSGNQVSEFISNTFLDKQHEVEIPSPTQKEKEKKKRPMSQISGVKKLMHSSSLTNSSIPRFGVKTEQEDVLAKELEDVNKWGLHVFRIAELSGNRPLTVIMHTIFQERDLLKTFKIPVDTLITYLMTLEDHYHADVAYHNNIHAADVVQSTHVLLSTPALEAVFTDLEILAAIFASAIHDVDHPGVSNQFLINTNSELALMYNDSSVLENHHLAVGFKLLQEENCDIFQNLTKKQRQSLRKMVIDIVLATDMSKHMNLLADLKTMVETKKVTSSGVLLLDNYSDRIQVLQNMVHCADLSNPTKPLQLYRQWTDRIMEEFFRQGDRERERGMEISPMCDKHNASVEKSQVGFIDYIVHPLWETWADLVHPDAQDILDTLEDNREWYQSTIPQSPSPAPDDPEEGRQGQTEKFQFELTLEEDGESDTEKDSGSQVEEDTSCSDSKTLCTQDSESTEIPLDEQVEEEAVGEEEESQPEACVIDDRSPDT
T1 sequence (P31645 whole entry): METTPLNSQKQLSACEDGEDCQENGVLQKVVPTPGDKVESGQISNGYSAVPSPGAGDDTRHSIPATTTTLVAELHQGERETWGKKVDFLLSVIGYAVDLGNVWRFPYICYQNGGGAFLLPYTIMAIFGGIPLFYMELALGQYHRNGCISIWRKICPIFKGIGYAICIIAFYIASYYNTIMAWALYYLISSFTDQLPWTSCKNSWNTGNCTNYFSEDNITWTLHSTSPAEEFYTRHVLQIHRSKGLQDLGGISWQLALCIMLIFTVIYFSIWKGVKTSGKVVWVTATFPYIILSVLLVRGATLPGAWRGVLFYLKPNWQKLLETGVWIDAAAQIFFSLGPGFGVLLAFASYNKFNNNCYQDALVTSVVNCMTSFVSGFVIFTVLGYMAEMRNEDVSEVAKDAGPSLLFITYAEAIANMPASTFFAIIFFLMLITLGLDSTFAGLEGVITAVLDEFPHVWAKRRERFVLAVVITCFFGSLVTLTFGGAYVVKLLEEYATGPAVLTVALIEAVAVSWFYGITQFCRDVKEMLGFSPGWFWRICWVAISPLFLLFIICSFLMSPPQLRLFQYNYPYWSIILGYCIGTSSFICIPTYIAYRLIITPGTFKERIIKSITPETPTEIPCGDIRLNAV
Chain of human recombinant PDE-4B1 (Q07343 whole entry): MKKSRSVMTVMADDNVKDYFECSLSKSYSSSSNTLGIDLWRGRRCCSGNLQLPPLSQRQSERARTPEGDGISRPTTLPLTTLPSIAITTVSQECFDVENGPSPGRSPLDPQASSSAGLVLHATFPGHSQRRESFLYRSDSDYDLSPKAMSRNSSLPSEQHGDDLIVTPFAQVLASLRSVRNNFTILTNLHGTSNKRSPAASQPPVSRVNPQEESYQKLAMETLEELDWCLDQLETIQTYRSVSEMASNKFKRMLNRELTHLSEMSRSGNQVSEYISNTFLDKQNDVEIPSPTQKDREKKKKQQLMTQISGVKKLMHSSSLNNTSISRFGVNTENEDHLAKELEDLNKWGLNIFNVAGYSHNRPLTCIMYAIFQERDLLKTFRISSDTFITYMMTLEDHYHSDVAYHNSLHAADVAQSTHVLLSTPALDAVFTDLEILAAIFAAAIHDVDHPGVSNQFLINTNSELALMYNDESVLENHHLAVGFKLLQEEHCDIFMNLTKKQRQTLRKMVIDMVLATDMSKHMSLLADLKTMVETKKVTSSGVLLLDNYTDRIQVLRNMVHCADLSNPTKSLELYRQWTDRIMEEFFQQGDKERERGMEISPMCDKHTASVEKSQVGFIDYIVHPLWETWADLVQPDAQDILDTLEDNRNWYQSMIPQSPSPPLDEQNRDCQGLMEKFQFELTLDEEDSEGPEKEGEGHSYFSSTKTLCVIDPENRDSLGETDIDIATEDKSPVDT

Take `COc1ccc(C23C=CC(O)CC2N(C)CC3)cc1OC` (centres unmarked) [Mesembrenol]: the “time sniffing female estrous urine” value in assay [1] (1 mg/kg i.p., mesembrenol p<0.01) was “significant increase”; in assay [1] (setting [7]), “significant increase”. Besides, the “time sniffing female estrous urine, dose response” value in assay [1] (0.3, 1 and 3 mg/kg i.p., relative to stress vehicle) is “dose dependent increase”. Moreover, the “time spent in the open arms” value in assay [2] (1 mg/kg i.p., 30 minutes pre-test, relative to vehicle) is “significant increase”; in assay [2] (setting [8]), “significant increase”. Moreover, the “number of open arm entries” value in assay [2] (0.3, 1 and 3 mg/kg i.p., versus the vehicle group) was “no change”. Moreover, the IC50 in assay [3] came out at 462 nM; in assay [4], 27.6 µM; in assay [5], 3.91 µM. In addition, in assay [6], the “effect in zebrafish model of anxiety” value was “anxiolytic-like effect”.

Turning to `COc1ccc(C23CCC(O)CC2N(C)CC3)cc1OC` (centres unmarked) [Mesembranol, 3a-(3,4-dimethoxyphenyl)-1-methyl-3,4,5,6,7,7a-hexahydro-2H-indol-6-ol], the “time sniffing female estrous urine” value in assay [1] (setting [7]) is listed as “significant increase”. The “number of open arm entries” value in assay [2] (setting [8]) was “significant increase”. Also, the “time spent in the open arms” value in assay [2] (setting [8]) is “significant increase”. The IC50 in assay [3] was determined as 143 nM; in assay [4], 8.41 µM; in assay [5] it was 9.84 µM. In assay [6], the “effect in zebrafish model of anxiety” value is “anxiolytic-like effect”.

Usually IC50 stands for the point on the concentration scale where inhibition reaches its midpoint.

These data come from US20250186397A1, “COMPOUNDS FOR THE USE IN THE TREATMENT OF MOOD DISORDERS” (Kanna Health Ltd, priority 2022, published 2025).
